# Measured values: ChEMBL document CHEMBL5344402, “A multi-target directed ligands strategy for the treatment of Alzheimer's disease: Dimethyl fumarate plus Tranilast modified Dithiocarbate as AChE inhibitor and Nrf2 activator” (Eur J Med Chem, 2022)
# Assays:
# [1] = target: Acetylcholinesterase (Electrophorus electricus, UniProt O42275); experiment: Inhibition of electric eel AChE using acetylthiocholine iodide as substrate preincubated for 5 mins followed by substrate addition by DTNB reagent based Ellman's method
# [2] = target: Cholinesterase (Equus caballus) (UniProt P81908); experiment: Inhibition of equine serum BuChE using butyrylthiocholine iodide as substrate at 10 uM preincubated for 5 mins followed by substrate addition by DTNB reagent based Ellman's method relative to control; assay type: cell-free
# [3] = target: Acetylcholinesterase (Homo sapiens, UniProt P22303); experiment: Inhibition of human AChE using acetylthiocholine iodide as substrate preincubated for 5 mins followed by substrate addition by DTNB reagent based Ellman's method
# [4] = target: Cholinesterase (Homo sapiens) (UniProt P06276); experiment: Inhibition of human BuChE using butyrylthiocholine iodide as substrate at 10 uM preincubated for 5 mins followed by substrate addition by DTNB reagent based Ellman's method relative to control
# [5] = in vitro; conditions: PAMPA
# Cholinesterase (Equus caballus), sequence (P81908 whole entry): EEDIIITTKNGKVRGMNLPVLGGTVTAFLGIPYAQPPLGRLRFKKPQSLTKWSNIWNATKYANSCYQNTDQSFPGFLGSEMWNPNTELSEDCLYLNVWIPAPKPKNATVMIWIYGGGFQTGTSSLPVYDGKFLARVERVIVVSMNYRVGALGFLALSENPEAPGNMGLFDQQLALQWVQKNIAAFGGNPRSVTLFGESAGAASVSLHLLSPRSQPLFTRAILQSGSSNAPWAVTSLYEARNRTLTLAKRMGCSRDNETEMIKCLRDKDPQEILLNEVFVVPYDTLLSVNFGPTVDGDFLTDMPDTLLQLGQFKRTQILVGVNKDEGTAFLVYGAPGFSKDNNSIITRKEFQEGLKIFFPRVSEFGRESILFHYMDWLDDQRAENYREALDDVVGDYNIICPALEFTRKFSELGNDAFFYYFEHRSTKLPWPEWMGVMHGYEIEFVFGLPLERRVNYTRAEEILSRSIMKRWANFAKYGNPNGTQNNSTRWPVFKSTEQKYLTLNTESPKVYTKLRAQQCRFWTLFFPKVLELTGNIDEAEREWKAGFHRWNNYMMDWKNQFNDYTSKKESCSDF
# Acetylcholinesterase (Electrophorus electricus, UniProt O42275), sequence (O42275 whole entry): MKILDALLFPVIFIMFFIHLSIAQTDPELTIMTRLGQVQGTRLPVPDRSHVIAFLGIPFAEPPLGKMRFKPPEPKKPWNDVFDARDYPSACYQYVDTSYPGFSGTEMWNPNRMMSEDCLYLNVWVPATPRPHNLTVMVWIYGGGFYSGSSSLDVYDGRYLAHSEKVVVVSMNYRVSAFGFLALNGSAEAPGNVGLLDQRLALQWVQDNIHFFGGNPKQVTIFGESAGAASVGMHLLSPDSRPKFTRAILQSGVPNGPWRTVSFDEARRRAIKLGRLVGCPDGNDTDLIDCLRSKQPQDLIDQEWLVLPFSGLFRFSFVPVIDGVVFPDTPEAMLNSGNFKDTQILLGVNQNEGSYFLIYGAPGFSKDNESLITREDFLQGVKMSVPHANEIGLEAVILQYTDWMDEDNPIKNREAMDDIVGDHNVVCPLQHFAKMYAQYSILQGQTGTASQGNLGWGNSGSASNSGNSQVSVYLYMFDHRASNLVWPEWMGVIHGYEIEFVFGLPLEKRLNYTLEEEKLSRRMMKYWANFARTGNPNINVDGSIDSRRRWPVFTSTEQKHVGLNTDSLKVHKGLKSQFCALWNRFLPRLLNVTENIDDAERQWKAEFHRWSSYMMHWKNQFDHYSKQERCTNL
# Cholinesterase (Homo sapiens), sequence (P06276 whole entry): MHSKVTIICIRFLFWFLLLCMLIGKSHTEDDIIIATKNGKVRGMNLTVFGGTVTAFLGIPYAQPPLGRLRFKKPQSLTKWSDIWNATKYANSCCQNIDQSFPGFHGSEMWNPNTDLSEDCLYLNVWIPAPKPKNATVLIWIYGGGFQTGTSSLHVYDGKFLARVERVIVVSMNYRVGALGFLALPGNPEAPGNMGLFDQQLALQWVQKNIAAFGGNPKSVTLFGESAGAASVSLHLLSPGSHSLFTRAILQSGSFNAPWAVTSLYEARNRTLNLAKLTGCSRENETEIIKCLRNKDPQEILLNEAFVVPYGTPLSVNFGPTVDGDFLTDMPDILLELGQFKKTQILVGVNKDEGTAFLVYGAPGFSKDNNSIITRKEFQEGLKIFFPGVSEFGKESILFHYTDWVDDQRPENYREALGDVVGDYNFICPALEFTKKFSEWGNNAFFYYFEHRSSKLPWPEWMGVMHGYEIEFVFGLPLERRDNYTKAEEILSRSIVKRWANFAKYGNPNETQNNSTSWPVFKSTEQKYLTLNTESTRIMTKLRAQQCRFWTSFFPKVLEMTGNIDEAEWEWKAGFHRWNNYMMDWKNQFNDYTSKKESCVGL
# Acetylcholinesterase (Homo sapiens, UniProt P22303), sequence (P22303 whole entry): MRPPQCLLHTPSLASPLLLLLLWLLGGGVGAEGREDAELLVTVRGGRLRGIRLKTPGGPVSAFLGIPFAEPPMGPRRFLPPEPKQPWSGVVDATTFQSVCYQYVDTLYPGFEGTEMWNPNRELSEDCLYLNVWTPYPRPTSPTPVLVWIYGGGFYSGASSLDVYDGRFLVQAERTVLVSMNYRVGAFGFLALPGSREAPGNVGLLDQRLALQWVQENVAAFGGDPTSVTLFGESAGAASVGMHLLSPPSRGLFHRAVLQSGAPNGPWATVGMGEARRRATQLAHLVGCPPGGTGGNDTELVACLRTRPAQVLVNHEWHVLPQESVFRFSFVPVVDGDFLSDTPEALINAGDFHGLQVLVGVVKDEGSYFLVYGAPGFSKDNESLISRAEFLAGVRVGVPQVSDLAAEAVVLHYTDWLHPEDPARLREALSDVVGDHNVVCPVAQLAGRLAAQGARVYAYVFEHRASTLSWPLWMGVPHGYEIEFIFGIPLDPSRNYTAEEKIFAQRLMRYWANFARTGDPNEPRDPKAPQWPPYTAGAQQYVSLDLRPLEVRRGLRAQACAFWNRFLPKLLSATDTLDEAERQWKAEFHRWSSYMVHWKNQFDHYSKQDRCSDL
SMILES,IC50 [1],inhibition [2],IC50 [3],inhibition [4],Papp at 18 h [5]
COC(=O)/C=C/C(=O)Nc1cccc(OCCCCSC(=S)N2CCOCC2)c1,74.2 µM,6.88%,,,
COC(=O)/C=C/C(=O)Nc1cccc(OCCCCSC(=S)N2CCCC2)c1,8.14 µM,8.8%,6.04 µM,< 5%,10.4 ×10⁻⁶ cm/s
COC(=O)/C=C/C(=O)Nc1cccc(OCCCCCCSC(=S)N2CCCCC2)c1,28.7 µM,< 5%,,,
COC(=O)/C=C/C(=O)Nc1cccc(OCCCCSC(=S)N(C)C)c1,56.5 µM,7.25%,,,
COC(=O)/C=C/C(=O)Nc1cccc(OCCCCCSC(=S)N2CCCCC2)c1,26.7 µM,< 5%,,,
COC(=O)/C=C/C(=O)Nc1cccc(OCCCCSC(=S)N2CCN(C)CC2)c1,91.6 µM,> 5%,,,
COC(=O)/C=C/C(=O)Nc1cccc(OCCCCSC(=S)N2C(C)CCCC2C)c1 (stereo not given),16.5 µM,7.14%,,,
CC(=O)[C@H]1CC[C@H]2[C@@H]3CCC4=CC(=O)CC[C@]4(C)[C@H]3CC[C@]12C [PROGESTERONE],,,,,11.2 ×10⁻⁶ cm/s
COC(=O)/C=C/C(=O)Nc1cccc(OCCCCSC(=S)N2CCC(O)CC2)c1,76.5 µM,10.1%,,,
